Test system: Boophilus microplus
Test: Boophilus microplus - injection test
Type: in vivo
Settings: application rate 20 μg/animal; injected into engorged adult female ticks; laying of fertile eggs, after 7 days
Protocol: Boophilus microplus—Injection Test
(§1) Solvent: dimethyl sulphoxide
To produce an appropriate active ingredient formulation, 10 mg of active ingredient are mixed with 0.5 ml of solvent and the concentrate is diluted with solvent to the desired concentration.
1 μl of the active ingredient solution is injected into the abdomen of 5 engorged adult female cattle ticks (Boophilus microplus). The animals are transferred into dishes and kept in a climate-controlled room.
Efficacy is assessed after 7 days by laying of fertile eggs. Eggs which are not visibly fertile are stored in a climate-controlled cabinet until the larvae hatch after about 42 days. An efficacy of 100% means that none of the ticks has laid any fertile eggs; 0% means that all the eggs are fertile.

Which efficacy does the source give for `Cc1cc(C(F)(C(F)(F)F)C(F)(F)F)cc(C)c1-n1cc(-c2cncc(C(=O)NC3CC3)c2)cn1` [I-T3-7] here?
The efficacy was 100%.

For `Cc1cc(C(F)(C(F)(F)F)C(F)(F)F)cc(C)c1-n1cc(-c2cccc(C(=O)NC3CC3)c2F)cn1` [I-T3-9], which efficacy is on record?
Its efficacy is 100%.

Which efficacy does the source give for `Cc1cc(C(F)(C(F)(F)F)C(F)(F)F)cc(C)c1-n1cc(-c2cc(C(=O)NC3(C#N)CC3)c(Cl)cc2F)cn1` [I-T3-17] here?
Its efficacy is 100%.

For `Cc1cc(C(F)(C(F)(F)F)C(F)(F)F)cc(C)c1-n1cc(-c2cccc(C(=O)NC3CC3)c2)cn1` [I-T3-29], which efficacy is on record?
The efficacy was 100%.

For `Cc1cc(C(F)(C(F)(F)F)C(F)(F)F)cc(C)c1-n1cc(-c2cccc(C(=O)NC3(C#N)CC3)c2)cn1` [I-T3-30], which efficacy is on record?
Its efficacy is 100%.

Which efficacy does the source give for `O=C(NC1CC1)c1cc(-c2cnn(-c3ccc(C(F)(C(F)(F)F)C(F)(F)F)cc3Cl)c2)ccc1Cl` [I-T3-31] here?
The efficacy was 100%.

Test system: Musca domestica
Test: Musca domestica test
Type: in vivo
Settings: application rate 100 ppm; adult houseflies; kill after 2 days
Protocol: as §1
(§2) To produce an appropriate active ingredient formulation, 10 mg of active ingredient are mixed with 0.5 ml of dimethyl sulphoxide, and the concentrate is diluted with water to the desired concentration.
Vessels containing a sponge treated with sugar solution and the active ingredient formulation of the desired concentration are populated with 10 adult houseflies (Musca domestica).
After 2 days, the kill in % is determined. 100% means that all of the flies have been killed; 0% means that none of the flies have been killed.

Which efficacy does the source give for `Cc1cc(C(F)(C(F)(F)F)C(F)(F)F)cc(C)c1-n1cc(-c2cncc(C(=O)NC3CC3)c2)cn1` [I-T3-7] here?
Its efficacy is 80%.

With `Cc1cc(C(F)(C(F)(F)F)C(F)(F)F)cc(C)c1-n1cc(-c2cccc(C(=O)NC3CC3)c2)cn1` [I-T3-29] as the compound, how does the efficacy read?
The efficacy was 100%.

Which efficacy does the source give for `Cc1cc(C(F)(C(F)(F)F)C(F)(F)F)cc(C)c1-n1cc(-c2cccc(C(=O)NC3(C#N)CC3)c2)cn1` [I-T3-30] here?
The efficacy was 90%.

With `O=C(NC1CC1)c1cc(-c2cnn(-c3ccc(C(F)(C(F)(F)F)C(F)(F)F)cc3Cl)c2)ccc1Cl` [I-T3-31] as the compound, how does the efficacy read?
The efficacy was 100%.

Test system: Lucilia cuprina
Test: Lucilia cuprina test
Type: in vivo
Settings: application rate 100 ppm; L1 larvae in minced horsemeat; kill after 2 days
Protocol: as §1, §2
About 20 L1 larvae of the Australian sheep blowfly (Lucilia cuprina) are transferred into a test vessel containing minced horsemeat and the active ingredient preparation of the desired concentration.
After 2 days, the kill in % is determined. 100% means that all the larvae have been killed; 0% means that none of the larvae have been killed.

Which efficacy does the source give for `Cc1cc(C(F)(C(F)(F)F)C(F)(F)F)cc(C)c1-n1cc(-c2cncc(C(=O)NC3CC3)c2)cn1` [I-T3-7] here?
The efficacy was 100%.

For `Cc1cc(C(F)(C(F)(F)F)C(F)(F)F)cc(C)c1-n1cc(-c2cccc(C(=O)NC3CC3)c2F)cn1` [I-T3-9], which efficacy is on record?
Its efficacy is 100%.

For `Cc1cc(C(F)(C(F)(F)F)C(F)(F)F)cc(C)c1-n1cc(-c2cc(C(=O)NC3(C#N)CC3)c(Cl)cc2F)cn1` [I-T3-17], which efficacy is on record?
Its efficacy is 100%.

With `Cc1cc(C(F)(C(F)(F)F)C(F)(F)F)cc(C)c1-n1cc(-c2cccc(C(=O)NC3CC3)c2)cn1` [I-T3-29] as the compound, how does the efficacy read?
The efficacy was 100%.

Which efficacy does the source give for `Cc1cc(C(F)(C(F)(F)F)C(F)(F)F)cc(C)c1-n1cc(-c2cccc(C(=O)NC3(C#N)CC3)c2)cn1` [I-T3-30] here?
Its efficacy is 100%.

Which efficacy does the source give for `O=C(NC1CC1)c1cc(-c2cnn(-c3ccc(C(F)(C(F)(F)F)C(F)(F)F)cc3Cl)c2)ccc1Cl` [I-T3-31] here?
Its efficacy is 100%.

Test system: Ctenocephalides felis
Test: Ctenocephalides felis - in vitro contact tests with adult cat fleas
Type: in vivo
Settings: application rate 5 μg/cm^2 (=500 g/ha), after 48 h (dead or moribund)
Protocol: Ctenocephalides felis—In Vitro Contact Tests with Adult Cat Fleas
For the coating of the test tubes, 9 mg of active ingredient are first dissolved in 1 ml of acetone p.a. and then diluted to the desired concentration with acetone p.a. 250 μl of the solution are distributed homogeneously on the inner walls and base of a 25 ml test tube by turning and rocking on an orbital shaker (rocking rotation at 30 rpm for 2 h). With 900 ppm active ingredient solution and internal surface area 44.7 cm^2, given homogeneous distribution, an area-based dose of 5 μg/cm^2 is achieved.
After the solvent has evaporated off, the tubes are populated with 5-10 adult cat fleas (Ctenocephalides felis), sealed with a perforated plastic lid and incubated in a horizontal position at room temperature and ambient humidity. After 48 h, efficacy is determined. To this end, the test tubes are stood upright and the fleas are knocked to the base of the tube. Fleas which remain motionless at the base or move in an uncoordinated manner are considered to be dead or moribund.
100% efficacy means that all the fleas were dead or moribund. 0% efficacy means that no fleas were harmed.

With `Cc1cc(C(F)(C(F)(F)F)C(F)(F)F)cc(C)c1-n1cc(-c2cncc(C(=O)NC3CC3)c2)cn1` [I-T3-7] as the compound, how does the efficacy read?
The efficacy was 100%.

With `Cc1cc(C(F)(C(F)(F)F)C(F)(F)F)cc(C)c1-n1cc(-c2cccc(C(=O)NC3CC3)c2F)cn1` [I-T3-9] as the compound, how does the efficacy read?
The efficacy was 100%.

For `Cc1cc(C(F)(C(F)(F)F)C(F)(F)F)cc(C)c1-n1cc(-c2cc(C(=O)NC3(C#N)CC3)c(Cl)cc2F)cn1` [I-T3-17], which efficacy is on record?
Its efficacy is 100%.

Which efficacy does the source give for `Cc1cc(C(F)(C(F)(F)F)C(F)(F)F)cc(C)c1-n1cc(-c2cccc(C(=O)NC3CC3)c2)cn1` [I-T3-29] here?
Its efficacy is 100%.

Which efficacy does the source give for `Cc1cc(C(F)(C(F)(F)F)C(F)(F)F)cc(C)c1-n1cc(-c2cccc(C(=O)NC3(C#N)CC3)c2)cn1` [I-T3-30] here?
The efficacy was 100%.

Which efficacy does the source give for `O=C(NC1CC1)c1cc(-c2cnn(-c3ccc(C(F)(C(F)(F)F)C(F)(F)F)cc3Cl)c2)ccc1Cl` [I-T3-31] here?
Its efficacy is 100%.

Test system: Ctenocephalides felis
Test: Ctenocephalides felis - oral test
Type: in vivo
Settings: application rate 100 ppm in citrated cattle blood; adult fleas; kill after 2 days
Protocol: Ctenocephalides felis—Oral Test
as §1
For the purpose of producing an appropriate active ingredient formulation, 10 mg of active ingredient are mixed with 0.5 ml of dimethyl sulphoxide. Dilution with citrated cattle blood gives the desired concentration.
About 20 unfed adult cat fleas (Ctenocephalides felis) are placed into a chamber which is closed at the top and bottom with gauze. A metal cylinder whose bottom end is closed with parafilm is placed onto the chamber. The cylinder contains the blood/active ingredient preparation, which can be imbibed by the fleas through the parafilm membrane.
After 2 days, the kill in % is determined. 100% means that all of the fleas have been killed; 0% means that none of the fleas have been killed.

With `Cc1cc(C(F)(C(F)(F)F)C(F)(F)F)cc(C)c1-n1cc(-c2cncc(C(=O)NC3CC3)c2)cn1` [I-T3-7] as the compound, how does the efficacy read?
Its efficacy is 100%.

For `Cc1cc(C(F)(C(F)(F)F)C(F)(F)F)cc(C)c1-n1cc(-c2cccc(C(=O)NC3CC3)c2F)cn1` [I-T3-9], which efficacy is on record?
The efficacy was 100%.

For `Cc1cc(C(F)(C(F)(F)F)C(F)(F)F)cc(C)c1-n1cc(-c2cc(C(=O)NC3(C#N)CC3)c(Cl)cc2F)cn1` [I-T3-17], which efficacy is on record?
The efficacy was 95%.

With `Cc1cc(C(F)(C(F)(F)F)C(F)(F)F)cc(C)c1-n1cc(-c2cccc(C(=O)NC3CC3)c2)cn1` [I-T3-29] as the compound, how does the efficacy read?
The efficacy was 100%.

For `Cc1cc(C(F)(C(F)(F)F)C(F)(F)F)cc(C)c1-n1cc(-c2cccc(C(=O)NC3(C#N)CC3)c2)cn1` [I-T3-30], which efficacy is on record?
The efficacy was 100%.

With `O=C(NC1CC1)c1cc(-c2cnn(-c3ccc(C(F)(C(F)(F)F)C(F)(F)F)cc3Cl)c2)ccc1Cl` [I-T3-31] as the compound, how does the efficacy read?
The efficacy was 100%.

Test system: not listed separately
Test: logP determination by HPLC on a reversed-phase column (C18), EEC Directive 79/831 Annex V.A8
Type: physicochemical
Settings: HPLC-MS method a), Table I-T3

With `Cc1cc(C(F)(C(F)(F)F)C(F)(F)F)cc(C)c1-n1cc(-c2cncc(C(=O)NC3CC3)c2)cn1` [I-T3-7] as the compound, how does the “logP^a)” value read?
The value was 3.4.

With `Cc1cc(C(F)(C(F)(F)F)C(F)(F)F)cc(C)c1-n1cc(-c2cccc(C(=O)NC3CC3)c2F)cn1` [I-T3-9] as the compound, how does the “logP^a)” value read?
Its value is 4.3.

For `Cc1cc(C(F)(C(F)(F)F)C(F)(F)F)cc(C)c1-n1cc(-c2cc(C(=O)NC3(C#N)CC3)c(Cl)cc2F)cn1` [I-T3-17], which “logP^a)” value is on record?
The value was 4.4.

With `Cc1cc(C(F)(C(F)(F)F)C(F)(F)F)cc(C)c1-n1cc(-c2cccc(C(=O)NC3CC3)c2)cn1` [I-T3-29] as the compound, how does the “logP^a)” value read?
The value was 3.3.

With `Cc1cc(C(F)(C(F)(F)F)C(F)(F)F)cc(C)c1-n1cc(-c2cccc(C(=O)NC3(C#N)CC3)c2)cn1` [I-T3-30] as the compound, how does the “logP^a)” value read?
The value was 3.2.

With `O=C(NC1CC1)c1cc(-c2cnn(-c3ccc(C(F)(C(F)(F)F)C(F)(F)F)cc3Cl)c2)ccc1Cl` [I-T3-31] as the compound, how does the “logP^a)” value read?
Its value is 4.3.

Source: patent US9758485B2, “Compounds for controlling arthropods” (priority 2013, dated 2017)
